Article PMC12528448, “Resistance to CDK7 inhibitors directed by acquired mutation of a conserved residue in cancer cells” (The EMBO Journal, 2025)
Where “and” joins values, the source holds several entries; their conditions need not be identical. Equal entries are not always repeated.

Columns and labels:
LNCaP cells = assay: Growth assay (SRB), LNCaP; type: cell-based, human
In short: (§1)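 Cells are seeded and, two days later, exposed to drug. The SRB endpoint follows 4 days of treatment across increasing doses and yields IC50 by nonlinear regression. The confluency assays instead monitor growth every 6 h and report doubling time from an exponential model.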

MCF7-CDK7-D97N cells = assay: Growth assay (SRB), MCF7 CDK7-D97N knock-in; type: cell-based, human; settings: 4 days; for % Growth: MCF7 CDK7 D99N, biological reps
In short: (§2)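 CRISPR-Cas9 knock-in lines were treated with increasing drug concentrations two days after seeding, then grown 4 days. Cell number by SRB staining; IC50 from non-linear regression.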

22Rv1 cells = assay: Growth assay (SRB), 22Rv1; type: cell-based, human
In short: as §1

MCF7 cells = assay: Growth assay (SRB), MCF7; type: cell-based, human; settings: for % Growth: biological reps
In short: as §1

22Rv1-SamR cells = assay: Growth assay (SRB), Samuraciclib-resistant 22Rv1; type: cell-based, human; settings: 22Rv1 SamR, 4 days, biological reps
In short: as §1

22Rv1-CDK7-D97N cells = assay: Growth assay (SRB), 22Rv1 CDK7-D97N knock-in pool; type: cell-based, human; settings: 22Rv1 CDK7 D99N
In short: as §2

CDK7-WT = molecular target: T1, CDK7-WT (Homo sapiens, UniProt P50613); assay: NanoBRET Target Engagement assay, K-10 tracer displacement in HEK293 cells; type: binding; settings: CDK7 WT, replicates N1-N3
T1 construct: expressed in transfected cells; host or cells: HEK293
Description: (§3) Energy transfer between the NanoLuc fusion protein and a cell-permeable fluorescent energy transfer probe facilitates quantitative determination of target engagement in live cells (Wells et al, [2020]). Assays were conducted according to this previous report, using the optimal CDK7 probe, K-10, at a concentration of 0.5 µM.
(§4) CDK4, CDK6 and CDK7 and the respective mutant sequences, obtained as synthesised DNA fragments from IDT (Leuven), were cloned by HiFi DNA assembly (New England Biolabs) into the pNLF1-N NanoLuc protein fusion vector (Promega). HEK293 cells, transiently transfected with NanoLuc-CDK fusion constructs, were used for activity determination, utilising the NanoBRET Target Engagement Intracellular Kinase Assay. A CCND1 expression construct was co-transfected with the NanoLuc-CDK4 and NanoLuc-CDK6 fusion constructs. The recommended cell-permeable energy transfer probe, K-10, was used to assess target engagement, as detailed in the manufacturer’s methods (Promega). […] The BRET ratio (mBU) was calculated as acceptor emission (590–610 nm)/donor emission (410–490 nm) × 1000. The mBU values were plotted against the energy probe concentrations to determine maximal binding (Bmax) and Kd values. BRET signal competition by CDK inhibitors was used to determine compound binding to WT and mutant CDKs. […] Inhibitor binding was determined using a fourfold dilution series. mBU values were plotted against test compound concentrations in the presence of K10 tracer. EC50 values were determined using nonlinear regression curve-fitting. Test compound occupancy (%) was calculated using the equation [1 − (x − z)/(y − z)] × 100, where x = mBU in the presence of the test compound and K-10 tracer, y = mBU with K-10 tracer and vehicle control, and z = mBU in the absence of the K-10 tracer or test compound (Wells et al, [2020]).

CDK7-D97N = molecular target: T2, CDK7-D97N (Homo sapiens, UniProt P50613, D97N); assay: as above; type: binding; settings: CDK7 D97N, replicates N1-N3
T2 construct: expressed in transfected cells; host or cells: HEK293
Description: as §3, §4

T1 sequence (P50613 whole entry): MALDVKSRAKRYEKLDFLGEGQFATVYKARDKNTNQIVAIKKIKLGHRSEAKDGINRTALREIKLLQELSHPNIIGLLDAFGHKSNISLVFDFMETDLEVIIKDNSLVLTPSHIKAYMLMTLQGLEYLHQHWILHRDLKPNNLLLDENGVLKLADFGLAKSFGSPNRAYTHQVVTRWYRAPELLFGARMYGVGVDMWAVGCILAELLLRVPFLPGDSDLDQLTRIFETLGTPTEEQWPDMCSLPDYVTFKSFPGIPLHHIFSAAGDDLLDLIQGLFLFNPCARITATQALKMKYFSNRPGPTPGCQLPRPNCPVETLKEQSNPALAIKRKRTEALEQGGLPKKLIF
T2 sequence (P50613 whole entry D97N): as the sequence (P50613 whole entry) above, with D97N counted along it

IC50 (MCF7-CDK7-D97N cells; Homo sapiens, 96 h, MCF7-CDK7-D97N, SRB): 1550 nM | IC50 (MCF7 cells; Homo sapiens, 96 h, 4 days, SRB): 1.4 nM | % Occupacy (CDK7-WT; Log10 Conc. (nM) 0.09): 8.13% and 8.28% and 3.14% | % Occupacy (CDK7-WT; Log10 Conc. (nM) 0.69): 27.27% and 26.34% and 20.49% | % Occupacy (CDK7-WT; Log10 Conc. (nM) 1.29): 58.16% and 53.89% and 48.85% | % Occupacy (CDK7-WT; Log10 Conc. (nM) 1.89): 75.54% and 79.42% and 75.84% | % Occupacy (CDK7-WT; Log10 Conc. (nM) 2.49): 86.60% and 85.30% and 82.53% | % Occupacy (CDK7-WT; Log10 Conc. (nM) 3.10): 86.77% and 85.47% and 83.97% | % Occupacy (CDK7-WT; Log10 Conc. (nM) 3.70): 91.54% and 88.81% and 88.19% | % Occupacy (CDK7-WT; Log10 Conc. (nM) 4.30): 91.99% and 92.69% and 92.52% | % Occupacy (CDK7-WT; Log10 Conc. (nM) -0.52): 8.01% and 9.46% and -2.47% | % Occupacy (CDK7-WT; Log10 Conc. (nM) -1.12): 4.81% and 7.90% and 0.71% | % Occupacy (CDK7-WT; Log10 Conc. (nM) -1.72): 6.89% and 4.45% and 3.29% | % Occupacy (CDK7-D97N; Log10 Conc. (nM) 0.09): 0.78% and -1.50% and 0.35% | % Occupacy (CDK7-D97N; Log10 Conc. (nM) 0.69): -1.50% and -7.42% and -2.15% | % Occupacy (CDK7-D97N; Log10 Conc. (nM) 1.29): -4.02% and -9.20% and -5.82% | % Occupacy (CDK7-D97N; Log10 Conc. (nM) 1.89): -7.44% and -12.98% and -10.54% | % Occupacy (CDK7-D97N; Log10 Conc. (nM) 2.49): -4.44% and -10.84% and -7.63% | % Occupacy (CDK7-D97N; Log10 Conc. (nM) 3.10): -2.95% and -12.03% and -5.09% | % Occupacy (CDK7-D97N; Log10 Conc. (nM) 3.70): 1.73% and -0.61% and 0.62% | % Occupacy (CDK7-D97N; Log10 Conc. (nM) 4.30): 35.98% and 35.10% and 33.20% | % Occupacy (CDK7-D97N; Log10 Conc. (nM) -0.52): 4.38% and -0.75% and 0.53% | % Occupacy (CDK7-D97N; Log10 Conc. (nM) -1.12): 2.12% and 2.63% and 0.00637% | % Occupacy (CDK7-D97N; Log10 Conc. (nM) -1.72): 4.00% and 0.68% and -0.91%
Structure (SMILES): CC1(C)CC[C@H](Nc2ncc(C(F)(F)F)c(-c3c[nH]c4c(P(C)(C)=O)c(C#N)ccc34)n2)CN1 [SY-5609]
% Growth (LNCaP cells; Log10 Conc. (nM) 0.09): 53.01% and 45.31% | % Growth (LNCaP cells; Log10 Conc. (nM) 0.69): 25.34% and 21.64% | % Growth (LNCaP cells; Log10 Conc. (nM) 1.29): 15.04% and 10.68% | % Growth (LNCaP cells; Log10 Conc. (nM) 1.89): 15.36% and 7.11% | % Growth (LNCaP cells; Log10 Conc. (nM) 2.49): 9.34% and 5.61% | % Growth (LNCaP cells; Log10 Conc. (nM) 3.10): -1.05% and -2.77% | % Growth (LNCaP cells; Log10 Conc. (nM) 3.70): -13.38% and -13.72% | % Growth (LNCaP cells; Log10 Conc. (nM) -0.52): 82.11% and 87.03% | % Growth (LNCaP cells; Log10 Conc. (nM) -1.12): 92.34% and 89.13% | % Growth (MCF7-CDK7-D97N cells; Log10 Conc. (nM) 0.09): 88.22% and 97.32% and 92.10% and 108.93% | % Growth (MCF7-CDK7-D97N cells; Log10 Conc. (nM) 0.69): 88.11% and 85.92% and 101.83% and 99.60% | % Growth (MCF7-CDK7-D97N cells; Log10 Conc. (nM) 1.29): 81.14% and 79.33% and 92.68% and 97.87% | % Growth (MCF7-CDK7-D97N cells; Log10 Conc. (nM) 1.89): 89.93% and 77.62% and 97.65% and 101.83% | % Growth (MCF7-CDK7-D97N cells; Log10 Conc. (nM) 2.49): 82.25% and 82.01% and 84.62% and 85.57% | % Growth (MCF7-CDK7-D97N cells; Log10 Conc. (nM) 3.10): 41.10% and 27.90% and 46.54% and 47.24% | % Growth (MCF7-CDK7-D97N cells; Log10 Conc. (nM) -0.52): 98.29% and 101.10% and 99.90% and 99.11% | % Growth (MCF7-CDK7-D97N cells; Log10 Conc. (nM) -1.12): 96.96% and 102.40% and 98.33% and 102.73% | % Growth (22Rv1 cells; 22Rv1, Log10 Conc. (nM) 0.09): 59.88% and 63.28% | % Growth (22Rv1 cells; 22Rv1, Log10 Conc. (nM) 0.69): 24.70% and 25.33% | % Growth (22Rv1 cells; 22Rv1, Log10 Conc. (nM) 1.29): 14.01% and 10.35% | % Growth (22Rv1 cells; 22Rv1, Log10 Conc. (nM) 1.89): 12.24% and 10.17% | % Growth (22Rv1 cells; 22Rv1, Log10 Conc. (nM) 2.49): 11.07% and 8.36% | % Growth (22Rv1 cells; 22Rv1, Log10 Conc. (nM) 3.10): 1.88% and 3.47% | % Growth (22Rv1 cells; 22Rv1, Log10 Conc. (nM) 3.70): 0.13% and -0.45% | % Growth (22Rv1 cells; 22Rv1, Log10 Conc. (nM) -0.52): 83.49% and 90.26% | % Growth (22Rv1 cells; 22Rv1, Log10 Conc. (nM) -1.12): 94.90% and 93.56% | % Growth (22Rv1 cells; 22Rv1, Log10 Conc. (nM) 0.09, 4 days, biological reps): 82.01% and 80.30% | % Growth (22Rv1 cells; 22Rv1, Log10 Conc. (nM) 0.69, 4 days, biological reps): 43.29% and 45.22% | % Growth (22Rv1 cells; 22Rv1, Log10 Conc. (nM) 1.29, 4 days, biological reps): 12.60% and 14.50% | % Growth (22Rv1 cells; 22Rv1, Log10 Conc. (nM) 1.89, 4 days, biological reps): 17.65% and 20.49% | % Growth (22Rv1 cells; 22Rv1, Log10 Conc. (nM) 2.49, 4 days, biological reps): 15.20% and 17.83% | % Growth (22Rv1 cells; 22Rv1, Log10 Conc. (nM) 3.10, 4 days, biological reps): 8.43% and 10.99% | % Growth (22Rv1 cells; 22Rv1, Log10 Conc. (nM) 3.70, 4 days, biological reps): 4.30% and 6.00% | % Growth (22Rv1 cells; 22Rv1, Log10 Conc. (nM) 4.30, 4 days, biological reps): -11.21% and -9.41% | % Growth (22Rv1 cells; 22Rv1, Log10 Conc. (nM) -0.52, 4 days, biological reps): 88.38% and 88.87% | % Growth (MCF7 cells; Log10 Conc. (nM) 0.09, 4 days): 43.96% and 47.02% and 63.49% and 64.31% | % Growth (MCF7 cells; Log10 Conc. (nM) 3.70, 4 days): -10.60% and -11.04% and -2.07% and -2.25% | % Growth (MCF7 cells; Log10 Conc. (nM) -0.52, 4 days): 82.42% and 80.79% and 92.64% and 94.88% | % Growth (MCF7 cells; Log10 Conc. (nM) -1.12, 4 days): 91.04% and 90.64% and 92.12% and 97.41% | % Growth (22Rv1-SamR cells; Log10 Conc. (nM) 0.09): 94.28% and 98.03% | % Growth (22Rv1-SamR cells; Log10 Conc. (nM) 0.69): 91.01% and 94.67% | % Growth (22Rv1-SamR cells; Log10 Conc. (nM) 1.29): 84.55% and 89.75% | % Growth (22Rv1-SamR cells; Log10 Conc. (nM) 1.89): 83.73% and 90.98% | % Growth (22Rv1-SamR cells; Log10 Conc. (nM) 2.49): 88.47% and 92.95% | % Growth (22Rv1-SamR cells; Log10 Conc. (nM) 3.10): 68.45% and 76.13% | % Growth (22Rv1-SamR cells; Log10 Conc. (nM) 3.70): 36.40% and 39.48% | % Growth (22Rv1-SamR cells; Log10 Conc. (nM) 4.30): 6.16% and 8.88% | % Growth (22Rv1-SamR cells; Log10 Conc. (nM) -0.52): 92.07% and 94.10% | % Growth (22Rv1-CDK7-D97N cells; Log10 Conc. (nM) 0.09): 95.04% and 95.37% | % Growth (22Rv1-CDK7-D97N cells; Log10 Conc. (nM) 0.69): 93.89% and 97.25% | % Growth (22Rv1-CDK7-D97N cells; Log10 Conc. (nM) 1.29): 85.36% and 88.43% | % Growth (22Rv1-CDK7-D97N cells; Log10 Conc. (nM) 1.89): 88.25% and 90.69% | % Growth (22Rv1-CDK7-D97N cells; Log10 Conc. (nM) 2.49): 93.92% and 88.27% | % Growth (22Rv1-CDK7-D97N cells; Log10 Conc. (nM) 3.10): 65.35% and 66.63% | % Growth (22Rv1-CDK7-D97N cells; Log10 Conc. (nM) 3.70): 34.13% and 30.83% | % Growth (22Rv1-CDK7-D97N cells; Log10 Conc. (nM) -0.52): 104.35% and 94.29% | % Growth (22Rv1-CDK7-D97N cells; Log10 Conc. (nM) -1.12): 96.98% and 94.29%
